This assay deals with NL-RLuc virus. In words: Inhibition of HIV replication (NL-RLuc luciferase reporter virus in MT-2 cells). In kind it is cell-based. The conditions noted are these: Human immunodeficiency virus 1, MT2, 120 h. In short, it runs like this:
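The read-out is Renilla luciferase expressed by replication-competent NL-RLuc (nef partly replaced), measured 5 days after infection of MT-2 cells grown with compound dilutions in 10% FBS RPMI. Median effect equation gives EC50 from ≥2 runs; A ≤100 nM, B 100 nM–1 uM, C >1 uM.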

SMILES strings stand for the structures. Read-outs that look alike come from different tables or passages of the source. Bounds are passed on as bounds.

`Cc1nc(C(=O)O)c(-c2ccc(OCCc3ccc(F)cc3)cc2)c(N2CCC(C)(C)CC2)c1[C@H](OC(C)(C)C)C(=O)O` [Example 38, (S)-5-(tert-Butoxy(carboxy)methyl)-4-(4,4-dimethylpiperidin-1-yl)-3-(4-(4-fluorophenethoxy)phenyl)-6-methylpicolinic acid]: the EC50 (read-out: Activity) is 0.1 to 1 µM.

With `Cc1ncc([C@H](OC(C)(C)C)C(=O)O)c(N2CCC(C)(C)CC2)c1-c1ccc(OCCc2ccc(F)cc2)cc1` [Example 182, (S)-2-(tert-Butoxy)-2-(4-(4,4-dimethylpiperidin-1-yl)-5-(4-(4-fluorophenethoxy)phenyl)-6-methylpyridin-3-yl)acetic acid], the EC50 (read-out: Activity) was under 0.1 µM. Take `Cc1nc(CNCC2CCOCC2)c(-c2ccc(OCCc3ccc(F)cc3)cc2)c(N2CCC(C)(C)CC2)c1[C@H](OC(C)(C)C)C(=O)O` [Example 67, (S)-2-(tert-Butoxy)-2-(4-(4,4-dimethylpiperidin-1-yl)-5-(4-(4-fluorophenethoxy)phenyl)-2-methyl-6-((((tetrahydro-2H-pyran-4-yl)methyl)amino)methyl)pyridin-3-yl)acetic acid]: the EC50 (read-out: Activity) was under 0.1 µM. Still for that read-out and setting: for `Cc1ncc(Br)c(N2CCC(C)(C)CC2)c1[C@H](OC(C)(C)C)C(=O)O` [Example 62, (S)-2-(5-Bromo-4-(4,4-dimethylpiperidin-1-yl)-2-methylpyridin-3-yl)-2-(tert-butoxy)acetic acid] the value was under 0.1 µM; for `Cc1nc(/C=C/COC(C)C)c(-c2ccc(OCCc3ccc(F)cc3)cc2)c(N2CCC(C)(C)CC2)c1[C@H](OC(C)(C)C)C(=O)O` [Example 54, (S,E)-2-(tert-Butoxy)-2-(4-(4,4-dimethylpiperidin-1-yl)-5-(4-(4-fluorophenethoxy)phenyl)-6-(3-isopropoxyprop-1-en-1-yl)-2-methylpyridin-3-yl)acetic acid], under 0.1 µM. Turning to `COC1CCN(Cc2nc(C)c([C@H](OC(C)(C)C)C(=O)O)c(N3CCC(C)(C)CC3)c2-c2ccc(OCCc3ccc(F)cc3)cc2)CC1` [Example 85, (S)-2-(tert-Butoxy)-2-(4-(4,4-dimethylpiperidin-1-yl)-5-(4-(4-fluorophenethoxy)phenyl)-6-((4-methoxypiperidin-1-yl)methyl)-2-methylpyridin-3-yl)acetic acid], the EC50 runs as follows: (read-out: Activity) under 0.1 µM; (read-out: EC50 μM) 0.001 µM. The like results for `CC1(C)CCN(c2c([C@H](OC(C)(C)C)C(=O)O)cnc(CCl)c2-c2ccc(OCCc3ccc(F)cc3)cc2)CC1` [Example 184, (S)-2-(tert-Butoxy)-2-(6-(chloromethyl)-4-(4,4-dimethylpiperidin-1-yl)-5-(4-(4-fluorophenethoxy)phenyl)pyridin-3-yl)acetic acid] were, in that order, under 0.1 µM and 0.04 µM. `Cc1nc(/C=C\COC(C)C)c(-c2ccc(OCCc3ccc(F)cc3)cc2)c(N2CCC(C)(C)CC2)c1[C@H](OC(C)(C)C)C(=O)O` [Example 55, (S,Z)-2-(tert-Butoxy)-2-(4-(4,4-dimethylpiperidin-1-yl)-5-(4-(4-fluorophenethoxy)phenyl)-6-(3-isopropoxyprop-1-en-1-yl)-2-methylpyridin-3-yl)acetic acid]: the EC50 (read-out: Activity) was under 0.1 µM.

With `COCCNCc1nc(C)c([C@H](OC(C)(C)C)C(=O)O)c(N2CCC(C)(C)CC2)c1-c1ccc2c(c1)CCN(Cc1ccc(F)cc1C)C2` [Example 116, (S)-2-(tert-Butoxy)-2-(4-(4,4-dimethylpiperidin-1-yl)-5-(2-(4-fluoro-2-methylbenzyl)-1,2,3,4-tetrahydroisoquinolin-6-yl)-6-(((2-methoxyethyl)amino)methyl)-2-methylpyridin-3-yl)acetic acid], the EC50 (read-out: Activity) is under 0.1 µM.

The record behind these values is patent US10351546B2, “Pyridin-3-yl acetic acid derivatives as inhibitors of human immunodeficiency virus replication” (priority 2015, dated 2019).
